Marks after values point to notes of the source that are not given here.
What was measured:
[1] = system: spontaneously hypertensive rats (SHR); experiment: Evaluation of blood pressure reduction (single administration, systolic blood pressure of the caudal artery); assay type: in vivo, rat; details: male 15 week-old SHR, fasted overnight, solution in physiological saline (0.2% actives in total), 1 mL/kg, mean ± SD, n=5; for Systolic blood pressure (changing ratio %) after 10 minutes: 10 minutes after administration vs prior to administration; for Systolic blood pressure (changing ratio %) After 1 hour: 1 hour after administration vs prior to administration
Method: Prior to initiation of the experimental studies in order to accustom the test animals to sphygmomanometric operation the blood pressure of each test animal—male, 15 week-old, spontaneously hypertensive rats (“SHR”)—was preliminarily measured for 7 successive days using a commercially available noninvasive sphygmomanometer for rats (manufactured by Softlon Co., Ltd.).
Rats were all bred in a breeding room in a rat region under uniform conditions at a room temperature at 25±1° C., humidity of 55±10% RH and illumination for 12 hours (from 7:00 am to 7:00 pm).
In the control group (Control Plot, see Table 1), physiological saline was employed. As a material to be administered, a solution obtained by dissolving 0.2 wt. % (which will hereinafter be simply described as %) of caffeic acid in physiological saline, a solution obtained by dissolving 0.2% of a chlorogenic acid in physiological saline, a solution obtained by dissolving 0.2% of ferulic acid in physiological saline and a solution obtained by dissolving 0.1% of caffeic acid and 0.1% of ferulic acid in physiological saline were used in Test plot 1, Test plot 2, Test plot 3 and Test plot 4, respectively. In Test plot 5, a solution obtained by dissolving 0.1% of a chlorogenic acid and 0.1% of ferulic acid in physiological saline was used, while in Test plot 6, a solution obtained by dissolving 0.05% of caffeic acid, 0.05% of a chlorogenic acid and 0.1% of ferulic acid in physiological saline was used. Each of them was administered from the common carotid artery. The dosage was 1 mL/kg.
SHRs were fasted overnight and employed for each test group, each group consisted of 5 rats. Systolic blood pressures of the caudal artery prior to intravenous administration, and 10 minutes and 1 hour each after administration were measured.
In Table 1, the changing ratio (%) in systolic blood pressure for each experimental group is reported by its mean value (%) and by its standard deviation. The Student's t-test was used to indicate the statistical significance of the experimental data. A significance level of 5% or less is indicated as “*” in Table 1, and significance level of 0.1% or less as “***”.
A lowering ratio of the systolic blood pressure of each of 10 minutes and 1 hour after administration to the systolic blood pressure prior to administration is shown in Table 1.

[2] = system: calcium; details: from spike of Schizonepeta tenuifolia Briq.; JP Kokai Hei 4-243822; cited from earlier work
[3] = target: angiotensin I converting enzyme (ACE) (Homo sapiens, UniProt P12821); details: polyphenols of unripe Rosaceae fruit juice; JP Kokai Hei 8-259453; cited from earlier work
Chain of angiotensin I converting enzyme (ACE) (P12821 30-1306, species assumed): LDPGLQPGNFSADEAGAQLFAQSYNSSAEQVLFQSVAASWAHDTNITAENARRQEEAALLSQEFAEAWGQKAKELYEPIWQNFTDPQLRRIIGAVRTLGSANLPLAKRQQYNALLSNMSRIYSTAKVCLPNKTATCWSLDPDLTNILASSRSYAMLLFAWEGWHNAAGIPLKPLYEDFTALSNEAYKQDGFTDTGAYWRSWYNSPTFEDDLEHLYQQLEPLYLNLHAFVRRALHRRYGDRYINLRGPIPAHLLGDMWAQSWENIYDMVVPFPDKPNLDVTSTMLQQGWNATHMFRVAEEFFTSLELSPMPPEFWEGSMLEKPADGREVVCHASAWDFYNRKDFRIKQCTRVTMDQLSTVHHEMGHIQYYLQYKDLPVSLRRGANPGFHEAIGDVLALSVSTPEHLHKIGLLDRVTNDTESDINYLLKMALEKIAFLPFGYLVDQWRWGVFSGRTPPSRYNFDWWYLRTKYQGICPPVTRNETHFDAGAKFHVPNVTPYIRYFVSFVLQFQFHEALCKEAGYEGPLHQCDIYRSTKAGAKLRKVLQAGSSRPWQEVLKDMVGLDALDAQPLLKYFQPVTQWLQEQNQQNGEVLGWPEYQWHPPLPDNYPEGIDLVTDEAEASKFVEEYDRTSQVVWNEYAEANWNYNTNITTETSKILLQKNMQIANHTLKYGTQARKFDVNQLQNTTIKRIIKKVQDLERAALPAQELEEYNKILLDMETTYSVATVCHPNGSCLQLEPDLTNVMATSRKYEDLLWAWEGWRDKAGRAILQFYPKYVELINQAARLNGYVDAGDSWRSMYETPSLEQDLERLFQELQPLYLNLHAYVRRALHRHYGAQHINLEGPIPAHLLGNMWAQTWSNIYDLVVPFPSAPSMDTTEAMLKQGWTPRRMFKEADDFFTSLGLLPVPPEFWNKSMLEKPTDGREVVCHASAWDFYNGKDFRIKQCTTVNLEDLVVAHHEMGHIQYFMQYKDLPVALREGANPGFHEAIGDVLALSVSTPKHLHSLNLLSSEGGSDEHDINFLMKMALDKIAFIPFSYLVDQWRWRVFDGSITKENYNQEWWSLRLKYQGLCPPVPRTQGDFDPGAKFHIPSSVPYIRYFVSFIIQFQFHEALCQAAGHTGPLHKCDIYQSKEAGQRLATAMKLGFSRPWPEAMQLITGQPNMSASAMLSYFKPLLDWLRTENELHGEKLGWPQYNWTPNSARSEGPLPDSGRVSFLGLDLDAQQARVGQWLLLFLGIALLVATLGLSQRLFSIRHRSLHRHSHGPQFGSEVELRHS

O=C(O)/C=C/c1ccc(O)c(O)c1 [Caffeic acid (CA), caffeic acid]
Systolic blood pressure (changing ratio %) after 10 minutes [1]: −4.1 ± 2.1% | Systolic blood pressure (changing ratio %) After 1 hour [1]: −10.2 ± 0.5*** % | calcium antagonism (in words) [2]: exerts calcium antagonism | angiotensin I converting enzyme (ACE) inhibitory action (in words) [3]: inhibitory action

O=C(/C=C/c1ccc(O)c(O)c1)O[C@@H]1C[C@](O)(C(=O)O)C[C@@H](O)[C@H]1O [Chlorogenic acid (CHA), chlorogenic acid]
Systolic blood pressure (changing ratio %) after 10 minutes [1]: −3.2 ± 2.6% | Systolic blood pressure (changing ratio %) After 1 hour [1]: −7.2 ± 1.7* % | angiotensin I converting enzyme (ACE) inhibitory action (in words) [3]: inhibitory action

COc1cc(/C=C/C(=O)O)ccc1O [Ferulic acid (FA), ferulic acid]
Systolic blood pressure (changing ratio %) after 10 minutes [1]: −7.8 ± 0.8*** % | Systolic blood pressure (changing ratio %) After 1 hour [1]: 0.7 ± 2.6%

— patent publication US7750053B2, “Compositions and methods for alleviating hypertension or preventing a rise in blood pressure” (KAO Corporation, priority 2000, dated 2010)
